# Measurements as given in US7786141B2 (Vertex Pharmaceuticals Incorporated, priority 2004, dated 2010).
# Like-named read-outs stand apart in the source and are kept apart here.
# What was measured:
# M4 muscarinic receptor = target: T1, M4 muscarinic receptor (Homo sapiens, UniProt P08173); assay: Functional mobilization of intracellular calcium (FLIPR) in M4-CHO cells; assay type: cell-based
# T1 construct: expressed in transfected cells; host or cells: CHO (M4-CHO)
# T1 sequence (P08173 1-479): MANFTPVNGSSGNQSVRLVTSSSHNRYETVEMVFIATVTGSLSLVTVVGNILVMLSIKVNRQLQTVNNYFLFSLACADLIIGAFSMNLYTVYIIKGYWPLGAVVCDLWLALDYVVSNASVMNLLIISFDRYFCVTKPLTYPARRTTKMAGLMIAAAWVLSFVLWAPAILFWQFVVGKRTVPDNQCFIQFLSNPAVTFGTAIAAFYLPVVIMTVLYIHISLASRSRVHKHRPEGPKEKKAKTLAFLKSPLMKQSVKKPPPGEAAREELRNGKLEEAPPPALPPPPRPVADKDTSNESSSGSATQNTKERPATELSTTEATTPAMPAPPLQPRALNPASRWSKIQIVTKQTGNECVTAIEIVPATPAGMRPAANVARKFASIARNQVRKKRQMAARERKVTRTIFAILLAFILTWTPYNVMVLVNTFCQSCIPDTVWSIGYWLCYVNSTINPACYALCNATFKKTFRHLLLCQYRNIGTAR
# In short: (§1)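 Two modes: direct compound addition for agonism, or 15 min compound pre-incubation (or co-application) before carbachol at EC80 for inhibition. Calcium signal from Fluo-3 AM or Calcium 3 dye in CHO cells, 1 mM probenecid, pH 7.4, read 60 sec at 488/540 nm; DMSO 0.5% final.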
# M1 muscarinic receptor = target: T2, M1 muscarinic receptor (Homo sapiens, UniProt P11229); assay: Functional mobilization of intracellular calcium (FLIPR) in M1-CHO cells; assay type: cell-based
# T2 construct: expressed in transfected cells; host or cells: CHO (M1-CHO)
# T2 sequence (P11229 1-460): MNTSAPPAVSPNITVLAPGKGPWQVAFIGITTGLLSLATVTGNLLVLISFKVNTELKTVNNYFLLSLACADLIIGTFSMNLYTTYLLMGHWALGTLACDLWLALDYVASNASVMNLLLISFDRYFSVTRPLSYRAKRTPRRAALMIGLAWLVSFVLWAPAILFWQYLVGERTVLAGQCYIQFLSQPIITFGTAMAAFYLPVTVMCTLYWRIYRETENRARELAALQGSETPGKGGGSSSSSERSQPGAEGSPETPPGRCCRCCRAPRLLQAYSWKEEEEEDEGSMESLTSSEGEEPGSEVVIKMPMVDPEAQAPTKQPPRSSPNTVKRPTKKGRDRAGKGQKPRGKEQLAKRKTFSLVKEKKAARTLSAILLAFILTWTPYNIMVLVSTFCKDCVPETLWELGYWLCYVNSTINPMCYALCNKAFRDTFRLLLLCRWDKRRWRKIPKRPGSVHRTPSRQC
# In short: as §1
# [1] = M4 receptor, calcium mobilization
# [2] = M4 receptor, calcium mobilization, read-out: M4 Efficacy
# [3] = M1 receptor, calcium mobilization
# [4] = M1 receptor, calcium mobilization, read-out: M1 Efficacy
# [5] = Table 4, 100% efficacy is the maximum response obtained with the Carbachol control
# [6] = Table 4, modulating M4 receptor
# [7] = Table 4, modulating M1 receptor
# [8] = Table 4, M4 receptor, calcium mobilization (FLIPR)
# [9] = Table 4, M1 receptor, calcium mobilization (FLIPR)
# [10] = 100% efficacy is the maximum response obtained with the Carbachol control, Table 5
# [11] = CHO cells expressing M4, calcium mobilization, Table 5
# [12] = CHO cells expressing M1, calcium mobilization, Table 5
smiles,measurement,setting,value
Fc1ccc2c(c1)C1(CCN(CC3CCC4CCC3C4)CC1)CN2 (stereo not shown) [compound 13],M4 Activity,M4 muscarinic receptor; [1],x (activity was measured to be greater than 1.0 μM)
same,Emax,M4 muscarinic receptor; [2],< 65%
same,M1 Activity,M1 muscarinic receptor; [3],xx (activity was measured to be between 0.1 μM and 1.0 μM)
same,Emax,M1 muscarinic receptor; [4],65 to 85%
CCCCOC(=O)N1C2CCC1CC(N1CCC3(CC1)CN(C(C)=O)c1ccccc13)C2 (stereo not shown) [compound 604],Emax,M4 muscarinic receptor; [5],25 to 100%
same,M4 Activity,M4 muscarinic receptor; [6],xxx (activity was measured to be less than 2.0 μM)
same,Emax,M1 muscarinic receptor; [5],< 25%
same,M1 Activity,M1 muscarinic receptor; [7],x (activity was measured to be greater than 5.0 μM)
CN(C)C(=O)N1CC2(CCN(C3CCN(C(=O)CC(F)(F)F)CC3)CC2)c2cc(F)ccc21 [compound 592],Emax,M4 muscarinic receptor; [5],< 25%
same,M4 Activity,M4 muscarinic receptor; [6],x (activity was measured to be greater than 5.0 μM)
same,Emax,M1 muscarinic receptor; [5],25 to 100%
same,M1 Activity,M1 muscarinic receptor; [7],xx (activity was measured to be between 2.0 μM and 5.0 μM)
Clc1ccc2c(c1)C1(CCN(C3CCCCC3)CC1)CO2 [compound 5],M4 Activity,M4 muscarinic receptor; [1],xxx (activity was measured to be less than 0.1 μM)
same,Emax,M4 muscarinic receptor; [2],> 85%
same,M1 Activity,M1 muscarinic receptor; [3],xxx (activity was measured to be less than 0.1 μM)
same,Emax,M1 muscarinic receptor; [4],65 to 85%
CC(=O)N1CC2(CCN(C3CCCN(C(=O)OC(C)C)CC3)CC2)c2cc(F)ccc21 (stereo not shown) [compound 395],EC50,"M4 muscarinic receptor; M4-CHO cells, calcium mobilization (FLIPR)",> 1 µM
same,Emax,"M4 muscarinic receptor; M4-CHO cells, calcium mobilization (FLIPR), read-out: M4 Efficacy",< 65%
same,EC50,"M1 muscarinic receptor; M1-CHO cells, calcium mobilization (FLIPR)",< 0.1 µM
same,Emax,"M1 muscarinic receptor; M1-CHO cells, calcium mobilization (FLIPR), read-out: M1 Efficacy",< 65%
CCOC(=O)C1CC1CN1CCC2(CC1)C[C@H](NC(C)=O)c1ccccc12 (stereo partly shown) [compound 926],Emax,M4 muscarinic receptor; [5],< 25%
same,M4 Activity,M4 muscarinic receptor; [8],x (activity was measured to be greater than 5.0 μM)
same,Emax,M1 muscarinic receptor; [5],25 to 100%
same,M1 Activity,M1 muscarinic receptor; [9],x (activity was measured to be greater than 5.0 μM)
CN(C)C(=O)N1CC2(CCN(C3CCN(c4ccc(F)cc4)CC3)CC2)c2cc(F)ccc21 [compound 534],Emax,M4 muscarinic receptor; [5],< 25%
same,M4 Activity,M4 muscarinic receptor; [6],xxx (activity was measured to be less than 2.0 μM)
same,Emax,M1 muscarinic receptor; [5],25 to 100%
same,M1 Activity,M1 muscarinic receptor; [7],xx (activity was measured to be between 2.0 μM and 5.0 μM)
CCOC(=O)N1CCC(N2CCC3(CC2)CN(C(C)=O)c2c(-c4cccc(C)c4)cccc23)CC1 [compound 907],Emax,M4 muscarinic receptor; [5],< 25%
same,M4 Activity,M4 muscarinic receptor; [8],x (activity was measured to be greater than 5.0 μM)
same,Emax,M1 muscarinic receptor; [5],25 to 100%
same,M1 Activity,M1 muscarinic receptor; [9],x (activity was measured to be greater than 5.0 μM)
CCOC(=O)N1CC[C@@H](CN2CCC3(CC2)CN(C(C)=O)c2ccccc23)C1 [compound 843],Emax,M4 muscarinic receptor; [5],25 to 100%
same,M4 Activity,M4 muscarinic receptor; [8],xxx (activity was measured to be less than 2.0 μM)
same,Emax,M1 muscarinic receptor; [5],25 to 100%
same,M1 Activity,M1 muscarinic receptor; [9],xxx (activity was measured to be less than 2.0 μM)
CCOC(=O)N1CCC(N2CCC3(CC2)CN(C(C)=O)c2c(F)cc(F)cc23)CC1 [compound 579],Emax,M4 muscarinic receptor; [5],25 to 100%
same,M4 Activity,M4 muscarinic receptor; [6],xxx (activity was measured to be less than 2.0 μM)
same,Emax,M1 muscarinic receptor; [5],25 to 100%
same,M1 Activity,M1 muscarinic receptor; [7],xxx (activity was measured to be less than 2.0 μM)
O=C1CCCN1[C@H]1CCC2(CCN([C@@H]3CC4CC[C@H]3C4)CC2)c2ccccc21 [compound 766],Emax,M4 muscarinic receptor; [5],25 to 100%
same,M4 Activity,M4 muscarinic receptor; [6],xxx (activity was measured to be less than 2.0 μM)
same,Emax,M1 muscarinic receptor; [5],25 to 100%
same,M1 Activity,M1 muscarinic receptor; [7],xxx (activity was measured to be less than 2.0 μM)
C#CCOC(=O)N1CC[C@H](CN2CCC3(CC2)CN(C(C)=O)c2cccc(C)c23)C1 [compound 573],Emax,M4 muscarinic receptor; [5],25 to 100%
same,M4 Activity,M4 muscarinic receptor; [6],xxx (activity was measured to be less than 2.0 μM)
same,Emax,M1 muscarinic receptor; [5],25 to 100%
same,M1 Activity,M1 muscarinic receptor; [7],xxx (activity was measured to be less than 2.0 μM)
CN(C)C(=O)N1CC2(CCN(C3CCN(C(=O)c4ccc(F)cc4)CC3)CC2)c2cc(F)ccc21 [compound 767],Emax,M4 muscarinic receptor; [5],< 25%
same,M4 Activity,M4 muscarinic receptor; [6],x (activity was measured to be greater than 5.0 μM)
same,Emax,M1 muscarinic receptor; [5],25 to 100%
same,M1 Activity,M1 muscarinic receptor; [7],x (activity was measured to be greater than 5.0 μM)
CCOC(=O)N1CCC(N2CCC3(CC2)CN(C(C)=O)c2ccc(C4CC4)cc23)CC1 [compound 245],M4 Activity,M4 muscarinic receptor; [1],xx (activity was measured to be between 0.1 μM and 1.0 μM)
same,Emax,M4 muscarinic receptor; [2],> 85%
same,M1 Activity,M1 muscarinic receptor; [3],xx (activity was measured to be between 0.1 μM and 1.0 μM)
same,Emax,M1 muscarinic receptor; [4],< 65%
CN(C)C(=O)N1CC2(CCN(C3CCN(c4cncnc4)CC3)CC2)c2cc(F)ccc21 [compound 1033],Emax,M4 muscarinic receptor; [10],25 to 100%
same,EC50,M4 muscarinic receptor; [11],< 2 µM
same,Emax,M1 muscarinic receptor; [10],25 to 100%
same,EC50,M1 muscarinic receptor; [12],2 to 10 µM
CN(C)C(=O)N1CC2(CCN(C[C@H]3CCN(c4nccs4)C3)CC2)c2cc(F)ccc21 [compound 1037],Emax,M4 muscarinic receptor; [10],25 to 100%
same,EC50,M4 muscarinic receptor; [11],< 2 µM
same,Emax,M1 muscarinic receptor; [10],25 to 100%
same,EC50,M1 muscarinic receptor; [12],2 to 10 µM
CC(=O)N[C@H]1CC2(CCN(C3CCC[C@@H](C)C3)CC2)c2ccccc21 (stereo partly shown) [compound 358],M4 Activity,M4 muscarinic receptor; [1],xx (activity was measured to be between 0.1 μM and 1.0 μM)
same,Emax,M4 muscarinic receptor; [2],65 to 85%
same,M1 Activity,M1 muscarinic receptor; [3],xxx (activity was measured to be less than 0.1 μM)
same,Emax,M1 muscarinic receptor; [4],65 to 85%
CCOC(=O)N1CCC(N2CCC3(CC2)CN(c2cnccn2)c2ccc(F)cc23)CC1 [compound 752],Emax,M4 muscarinic receptor; [5],25 to 100%
same,M4 Activity,M4 muscarinic receptor; [6],xxx (activity was measured to be less than 2.0 μM)
same,Emax,M1 muscarinic receptor; [5],25 to 100%
same,M1 Activity,M1 muscarinic receptor; [7],xxx (activity was measured to be less than 2.0 μM)
CCOC(=O)N1CCC(N2CCC3(CC2)CN(C(=O)[C@H](O)CC)c2ccc(F)cc23)CC1 [compound 730],Emax,M4 muscarinic receptor; [5],25 to 100%
same,M4 Activity,M4 muscarinic receptor; [6],xxx (activity was measured to be less than 2.0 μM)
same,Emax,M1 muscarinic receptor; [5],25 to 100%
same,M1 Activity,M1 muscarinic receptor; [7],xxx (activity was measured to be less than 2.0 μM)
CCOC(=O)N1CCC(N2CCC3(CC2)CN(C(C)=O)c2ccc(-c4cccnc4)cc23)CC1 [compound 234],M4 Activity,M4 muscarinic receptor; [1],xxx (activity was measured to be less than 0.1 μM)
same,Emax,M4 muscarinic receptor; [2],65 to 85%
same,M1 Activity,M1 muscarinic receptor; [3],xxx (activity was measured to be less than 0.1 μM)
same,Emax,M1 muscarinic receptor; [4],65 to 85%
CC(=O)N1CC2(CCN(CC3CC3)CC2)c2cc(F)ccc21 [compound 577],Emax,M4 muscarinic receptor; [5],< 25%
same,M4 Activity,M4 muscarinic receptor; [6],x (activity was measured to be greater than 5.0 μM)
same,Emax,M1 muscarinic receptor; [5],< 25%
same,M1 Activity,M1 muscarinic receptor; [7],x (activity was measured to be greater than 5.0 μM)
COCCOC(=O)N1C2CCC1CC(N1CCC3(CC1)CN(C(C)=O)c1ccccc13)C2 (stereo not shown) [compound 607],Emax,M4 muscarinic receptor; [5],25 to 100%
same,M4 Activity,M4 muscarinic receptor; [6],xxx (activity was measured to be less than 2.0 μM)
same,Emax,M1 muscarinic receptor; [5],25 to 100%
same,M1 Activity,M1 muscarinic receptor; [7],xxx (activity was measured to be less than 2.0 μM)
